Results published in patent US20240218022A1, “ANTI-VISTA MACROCYCLIC PEPTIDES AND COMPOSITIONS” (BRISTOL-MYERS SQUIBB COMPANY, priority 2022, published 2024).
Starred links: 1 amine or outer side, 2 acyl side, 3 side chain; linkers in the order of their positions; H or OH if unused. Positions of bridges follow the written chain, without caps; N, C: chain ends. Non-standard residues stand in square brackets, D forms with d. Residues, ends and D or L forms follow the SMILES beside them. ξ: configuration not given here. Phe(4-COOH) = N[C@@H](Cc1ccc(C(=O)O)cc1)C(=O)O; γGlu = O=C(O)[C@H](CCC(=O)[*:2])N[*:1]; βAsp = O=C(O)[C@H](CC(=O)[*:2])N[*:1]; NMeF = CN[C@@H](Cc1ccccc1)C(=O)O; Ile(3ξ) = CCC(C)[C@H](N)C(=O)O; NMeL = CN[C@@H](CC(C)C)C(=O)O; Ahp(2) = CCCCC[C@H](N)C(=O)O; NMeNle = CCCC[C@H](NC)C(=O)O; Tle = CC(C)(C)[C@H](N)C(=O)O; NHexGly = CCCCCCNCC(=O)O; NMeA = CN[C@@H](C)C(=O)O; Nle = CCCC[C@H](N)C(=O)O; Orn = NCCC[C@H](N)C(=O)O; Aun = NCCCCCCCCCCC(=O)O; AEEA = NCCOCCOCC(=O)O

Target: T1, mouse VISTA (mVISTA) (Mus musculus, UniProt Q9D659)
T1 construct: expressed in transfected cells; host or cells: Human embryonic kidney 293T cells
T1 sequence (Q9D659 33-308): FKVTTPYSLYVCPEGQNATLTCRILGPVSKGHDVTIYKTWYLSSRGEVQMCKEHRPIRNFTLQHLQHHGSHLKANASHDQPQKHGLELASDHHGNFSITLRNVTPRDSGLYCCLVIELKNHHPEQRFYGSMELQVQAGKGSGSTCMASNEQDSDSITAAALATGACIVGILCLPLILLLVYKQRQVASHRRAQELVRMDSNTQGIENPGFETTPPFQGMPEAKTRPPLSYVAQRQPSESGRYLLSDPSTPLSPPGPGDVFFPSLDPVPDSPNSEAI
Assay: Cell-Based Binding High-Content Assay For mVISTA (HC CBA mVISTA)
Details: read-out: HC CBA mVISTA IC50
Procedure, shortened: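 Read-out: Alexa 647–streptavidin signal imaged on fixed, Hoechst-stained mVISTA-293T cells, with IC50 taken from a four-parameter logistic curve. Compounds competed with 2 nM biotinylated peptide for 30 min at room temperature, tested under both no-wash and wash (1 h compound, media exchange, 1 h) formats.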

Row | Compound | IC50 [µM]
1 | CCCCCCN1CC(=O)N[C@@H](Cc2ccc(O)cc2)C(=O)N[C@@H](CCCCC)C(=O)N[C@@H](CC(N)=O)C(=O)N[C@@H](CCCN)C(=O)N(C)[C@@H](CCCC)C(=O)N[C@@H](CCCCC)C(=O)N2CCC[C@H]2C(=O)N[C@@H](C(C)(C)C)C(=O)N[C@@H](CO)C(=O)N[C@H](C(=O)N[C@@H](CCC(=O)NCCCCCCCCCCC(=O)O)C(=O)O)CSCC(=O)N[C@@H](Cc2ccccc2)C(=O)N[C@@H](Cc2c[nH]c3ccccc23)C(=O)N[C@@H](CC(=O)O)C1=O [Example 2144] ({CH2CO}-FWD[NHexGly]Y[Ahp(2)]N[Orn][NMeNle][Ahp(2)]P[Tle]SC[γGlu][Aun]-OH; thioether N-14) | 0.039
2 | CCCCCCN1CC(=O)N[C@@H](Cc2ccc(O)cc2)C(=O)N[C@@H](CCCC)C(=O)N[C@@H](CC(N)=O)C(=O)N[C@@H](CCCNC(=N)N)C(=O)N(C)[C@@H](CCCC)C(=O)N[C@@H](CCCCC)C(=O)N(C)[C@@H](C)C(=O)N[C@@H](C(C)(C)C)C(=O)N[C@@H](CO)C(=O)N[C@H](C(=O)N[C@@H](CC(=O)NCCOCCOCC(=O)NCCCCCCCCCCC(=O)O)C(=O)O)CSCC(=O)N[C@@H](Cc2ccccc2)C(=O)N[C@@H](Cc2c[nH]c3ccccc23)C(=O)N[C@@H](CC(=O)O)C1=O [Example 2169] ({CH2CO}-FWD[NHexGly]Y[Nle]NR[NMeNle][Ahp(2)][NMeA][Tle]SC[βAsp][AEEA][Aun]-OH; thioether N-14) | 0.0198
3 | CCCCCCN1CC(=O)N[C@@H](Cc2ccc(O)cc2)C(=O)N[C@@H](CCCC)C(=O)N[C@@H](CC(N)=O)C(=O)N[C@@H](CCCNC(=N)N)C(=O)N(C)[C@@H](CCCC)C(=O)N[C@@H](CCCCC)C(=O)N(C)[C@@H](C)C(=O)N[C@@H](C(C)CC)C(=O)N[C@@H](CO)C(=O)N[C@H](C(=O)N[C@@H](CC(=O)NCCOCCOCC(=O)NCCCCCCCCCCC(=O)O)C(=O)O)CSCC(=O)N[C@@H](Cc2ccccc2)C(=O)N[C@@H](Cc2c[nH]c3ccccc23)C(=O)N[C@@H](CC(=O)O)C1=O (stereo partly shown) [Example 2171] ({CH2CO}-FWD[NHexGly]Y[Nle]NR[NMeNle][Ahp(2)][NMeA][Ile(3ξ)]SC[βAsp][AEEA][Aun]-OH; thioether N-14) | 0.0288
4 | CCCCCCN1CC(=O)N[C@@H](Cc2ccc(O)cc2)C(=O)N[C@@H](CCCC)C(=O)N[C@@H](CC(N)=O)C(=O)N[C@@H](CCCNC(=N)N)C(=O)N(C)[C@@H](CCCC)C(=O)N[C@@H](CCCCC)C(=O)N(C)[C@@H](C)C(=O)N[C@@H](C(C)C)C(=O)N[C@@H](CO)C(=O)N[C@H](C(=O)N[C@@H](CC(=O)NCCOCCOCC(=O)NCCCCCCCCCCC(=O)O)C(=O)O)CSCC(=O)N[C@@H](Cc2ccccc2)C(=O)N[C@@H](Cc2c[nH]c3ccccc23)C(=O)N[C@@H](CC(=O)O)C1=O [Example 2172] ({CH2CO}-FWD[NHexGly]Y[Nle]NR[NMeNle][Ahp(2)][NMeA]VSC[βAsp][AEEA][Aun]-OH; thioether N-14) | 0.0306
5 | CCCCCCN1CC(=O)N[C@@H](Cc2ccc(O)cc2)C(=O)N[C@@H](CCCC)C(=O)N[C@@H](CC(N)=O)C(=O)N[C@@H](CCCNC(=N)N)C(=O)N(C)[C@@H](CCCC)C(=O)N[C@@H](CCCCC)C(=O)N(C)[C@@H](CCCC)C(=O)N[C@@H](C(C)(C)C)C(=O)N[C@@H](CO)C(=O)N[C@H](C(=O)N[C@@H](CC(=O)NCCOCCOCC(=O)NCCCCCCCCCCC(=O)O)C(=O)O)CSCC(=O)N[C@@H](Cc2ccccc2)C(=O)N[C@@H](Cc2c[nH]c3ccccc23)C(=O)N[C@@H](CC(=O)O)C1=O [Example 2173] ({CH2CO}-FWD[NHexGly]Y[Nle]NR[NMeNle][Ahp(2)][NMeNle][Tle]SC[βAsp][AEEA][Aun]-OH; thioether N-14) | 0.0351
6 | CCCCCCN1CC(=O)N[C@@H](Cc2ccc(O)cc2)C(=O)N[C@@H](CCCC)C(=O)N[C@@H](CC(N)=O)C(=O)N[C@@H](CCCNC(=N)N)C(=O)N(C)[C@@H](CCCC)C(=O)N[C@@H](CCCCC)C(=O)N(C)[C@@H](CC(C)C)C(=O)N[C@@H](C(C)CC)C(=O)N[C@@H](CO)C(=O)N[C@H](C(=O)N[C@@H](CC(=O)NCCOCCOCC(=O)NCCCCCCCCCCC(=O)O)C(=O)O)CSCC(=O)N[C@@H](Cc2ccccc2)C(=O)N[C@@H](Cc2c[nH]c3ccccc23)C(=O)N[C@@H](CC(=O)O)C1=O (stereo partly shown) [Example 2178] ({CH2CO}-FWD[NHexGly]Y[Nle]NR[NMeNle][Ahp(2)][NMeL][Ile(3ξ)]SC[βAsp][AEEA][Aun]-OH; thioether N-14) | 0.0467

The remaining compounds from weak to strong by IC50, led by results:

Row | IC50 [µM] | Compound
7 | 0.0419 | CCCCCCN1CC(=O)N[C@@H](Cc2ccc(O)cc2)C(=O)N[C@@H](CCCCN)C(=O)N[C@@H](CC(N)=O)C(=O)N[C@@H](CCCN)C(=O)N(C)[C@@H](CCCC)C(=O)N[C@@H](CCCCC)C(=O)N2CCC[C@H]2C(=O)N[C@@H](C(C)(C)C)C(=O)N[C@@H](CC(=O)O)C(=O)N[C@H](C(=O)N[C@@H](CCC(=O)NCCCCCCCCCCC(=O)O)C(=O)O)CSCC(=O)N[C@@H](Cc2ccccc2)C(=O)N[C@@H](Cc2ccc(O)cc2)C(=O)N[C@@H](CC(=O)O)C1=O [Example 2140] ({CH2CO}-FYD[NHexGly]YKN[Orn][NMeNle][Ahp(2)]P[Tle]DC[γGlu][Aun]-OH; thioether N-14)
8 | 0.0384 | CCCCCCN1CC(=O)N[C@@H](Cc2ccc(O)cc2)C(=O)N[C@@H](CCCC)C(=O)N[C@@H](CC(N)=O)C(=O)N[C@@H](CCCNC(=N)N)C(=O)N(C)[C@@H](Cc2ccccc2)C(=O)N[C@@H](CCCCC)C(=O)N2CCC[C@H]2C(=O)N[C@@H](C(C)C)C(=O)N[C@@H](CO)C(=O)N[C@H](C(=O)N[C@@H](CC(=O)NCCOCCOCC(=O)NCCCCCCCCCCC(=O)O)C(=O)O)CSCC(=O)N[C@@H](Cc2ccccc2)C(=O)N[C@@H](Cc2c[nH]c3ccccc23)C(=O)N[C@@H](CC(=O)O)C1=O [Example 2177] ({CH2CO}-FWD[NHexGly]Y[Nle]NR[NMeF][Ahp(2)]PVSC[βAsp][AEEA][Aun]-OH; thioether N-14)
9 | 0.0325 | CCCCCCN1CC(=O)N[C@@H](Cc2ccc(O)cc2)C(=O)N[C@@H](CCCCC)C(=O)N[C@@H](CC(N)=O)C(=O)N[C@@H](CCCNC(=N)N)C(=O)N(C)[C@@H](CCCC)C(=O)N[C@@H](CCCCC)C(=O)N2CCC[C@H]2C(=O)N[C@@H](C(C)(C)C)C(=O)N[C@@H](CO)C(=O)N[C@H](C(=O)N[C@@H](CCC(=O)NCCCCCCCCCCC(=O)O)C(=O)O)CSCC(=O)N[C@@H](Cc2ccccc2)C(=O)N[C@@H](Cc2ccc(O)cc2)C(=O)N[C@@H](CC(=O)O)C1=O [Example 2142] ({CH2CO}-FYD[NHexGly]Y[Ahp(2)]NR[NMeNle][Ahp(2)]P[Tle]SC[γGlu][Aun]-OH; thioether N-14)
10 | 0.0294 | CCCCCCN1CC(=O)N[C@@H](Cc2ccc(O)cc2)C(=O)N[C@@H](CCCCC)C(=O)N[C@@H](CC(N)=O)C(=O)N[C@@H](CCCN)C(=O)N(C)[C@@H](CCCC)C(=O)N[C@@H](CCCCC)C(=O)N2CCC[C@H]2C(=O)N[C@@H](C(C)(C)C)C(=O)N[C@@H](CO)C(=O)N[C@H](C(=O)N[C@@H](CCC(=O)NCCCCCCCCCCC(=O)O)C(=O)O)CSCC(=O)N[C@@H](Cc2ccccc2)C(=O)N[C@@H](Cc2ccc(O)cc2)C(=O)N[C@@H](CC(=O)O)C1=O [Example 2143] ({CH2CO}-FYD[NHexGly]Y[Ahp(2)]N[Orn][NMeNle][Ahp(2)]P[Tle]SC[γGlu][Aun]-OH; thioether N-14)
11 | 0.0265 | CCCCCCN1CC(=O)N[C@@H](Cc2ccc(O)cc2)C(=O)N[C@@H](CCCCC)C(=O)N[C@@H](CC(N)=O)C(=O)N[C@@H](CCCN)C(=O)N(C)[C@@H](CCCC)C(=O)N[C@@H](CCCCC)C(=O)N2CCC[C@H]2C(=O)N[C@@H](C(C)(C)C)C(=O)N[C@@H](CC(=O)O)C(=O)N[C@H](C(=O)N[C@@H](CCC(=O)NCCCCCCCCCCC(=O)O)C(=O)O)CSCC(=O)N[C@@H](Cc2ccccc2)C(=O)N[C@@H](Cc2ccc(O)cc2)C(=O)N[C@@H](CC(=O)O)C1=O [Example 2141] ({CH2CO}-FYD[NHexGly]Y[Ahp(2)]N[Orn][NMeNle][Ahp(2)]P[Tle]DC[γGlu][Aun]-OH; thioether N-14)
12 | 0.0198 | CCCCCCN1CC(=O)N[C@@H](Cc2ccc(O)cc2)C(=O)N[C@@H](CCCC)C(=O)N[C@@H](CC(N)=O)C(=O)N[C@@H](CCCNC(=N)N)C(=O)N[C@@H](Cc2ccc(C(=O)O)cc2)C(=O)N[C@@H](CCCCC)C(=O)N2CCC[C@H]2C(=O)N[C@@H](C(C)C)C(=O)N[C@@H](CO)C(=O)N[C@H](C(=O)N[C@@H](CC(=O)NCCOCCOCC(=O)NCCCCCCCCCCC(=O)O)C(=O)O)CSCC(=O)N[C@@H](Cc2ccccc2)C(=O)N[C@@H](Cc2c[nH]c3ccccc23)C(=O)N[C@@H](CC(=O)O)C1=O [Example 2176] ({CH2CO}-FWD[NHexGly]Y[Nle]NR[Phe(4-COOH)][Ahp(2)]PVSC[βAsp][AEEA][Aun]-OH; thioether N-14)
13 | 0.0166 | CCCCCCN1CC(=O)N[C@@H](Cc2ccc(O)cc2)C(=O)N[C@@H](CCCC)C(=O)N[C@@H](CC(N)=O)C(=O)N[C@@H](CCCNC(=N)N)C(=O)N(C)[C@@H](C)C(=O)N[C@@H](CCCCC)C(=O)N2CCC[C@H]2C(=O)N[C@@H](C(C)C)C(=O)N[C@@H](CO)C(=O)N[C@H](C(=O)N[C@@H](CC(=O)NCCOCCOCC(=O)NCCCCCCCCCCC(=O)O)C(=O)O)CSCC(=O)N[C@@H](Cc2ccccc2)C(=O)N[C@@H](Cc2c[nH]c3ccccc23)C(=O)N[C@@H](CC(=O)O)C1=O [Example 2174] ({CH2CO}-FWD[NHexGly]Y[Nle]NR[NMeA][Ahp(2)]PVSC[βAsp][AEEA][Aun]-OH; thioether N-14)
